For 17 compounds, T/C results are on record in PubChem BioAssay AID248 (DTP/NCI, 2004).

SMILES strings stand for the structures. Values joined by “and” are separate entries in the source; they are usually repeats but may differ in a detail not shown here. Equal values may be shown once. Toxic doses and inconclusive results are not listed.

The assay concerns L1210 leukemia ip in BDF1 mice, survival T/C. As to the kind of experiment: NCI In Vivo Anticancer Drug Screen. Data for tumor model L1210 Leukemia (intraperitoneal) in B6D2F1 (BDF1) mice. As to conditions: endpoint: mean survival time, higher = longer survival. A digest of the protocol: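 Each compound was tested against a transplantable tumor grown in mice. The endpoint was survival, with treated animals benchmarked against vehicle controls as a simple ratio.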

Where [1] appears, read: dose: 100.0 mg/kg/injection, schedule: Q04DX003 (ip), vehicle: Klucel (hydroxypropylcellulose) (HPC).
[2] abbreviates: dose: 200.0 mg/kg/injection, schedule: Q04DX003 (ip), vehicle: Klucel (hydroxypropylcellulose) (HPC).
Where [3] appears, read: dose: 50.0 mg/kg/injection, schedule: Q01DX009 (ip), vehicle: saline with Tween-80.
The mark [4] stands for this setting: dose: 100.0 mg/kg/injection, schedule: Q01DX009 (ip), vehicle: saline with Tween-80.
The mark [5] stands for this setting: dose: 200.0 mg/kg/injection, schedule: Q01DX009 (ip), vehicle: saline with Tween-80.
[6] abbreviates: dose: 50.0 mg/kg/injection, schedule: Q04DX003 (ip), vehicle: Klucel (hydroxypropylcellulose) (HPC).
Where [7] appears, read: dose: 100.0 mg/kg/injection, schedule: Q04DX002 (ip), vehicle: Klucel (hydroxypropylcellulose) (HPC).
[8] abbreviates: dose: 100.0 mg/kg/injection, schedule: Q01DX009 (ip), vehicle: Klucel (hydroxypropylcellulose) (HPC).
[9] abbreviates: dose: 200.0 mg/kg/injection, schedule: Q01DX009 (ip), vehicle: Klucel (hydroxypropylcellulose) (HPC).
Where [10] appears, read: dose: 200.0 mg/kg/injection, schedule: Q04DX002 (ip), vehicle: Klucel (hydroxypropylcellulose) (HPC).
The mark [11] stands for this setting: dose: 400.0 mg/kg/injection, schedule: Q04DX002 (ip), vehicle: Klucel (hydroxypropylcellulose) (HPC).
The mark [12] stands for this setting: dose: 100.0 mg/kg/injection, schedule: Q04DX003 (ip), vehicle: saline.
Setting [13] is: dose: 200.0 mg/kg/injection, schedule: Q04DX003 (ip), vehicle: saline.

Take `CC(O)C(=O)[O][Hg][c]1ccccc1` (stereo unspecified): the T/C is, setting by setting: (dose: 2.5 mg/kg/injection, schedule: Q01DX009 (ip), vehicle: saline with Tween-80) 91 % of control; (dose: 2.5 mg/kg/injection, schedule: Q04DX003 (ip), vehicle: saline with Tween-80) 92 % of control; (dose: 5.0 mg/kg/injection, schedule: Q01DX009 (ip), vehicle: saline with Tween-80) 94 % of control; (dose: 5.0 mg/kg/injection, schedule: Q04DX003 (ip), vehicle: saline with Tween-80) 105 % of control; (dose: 10.0 mg/kg/injection, schedule: Q01DX009 (ip), vehicle: saline with Tween-80) 98 % of control; (dose: 10.0 mg/kg/injection, schedule: Q04DX003 (ip), vehicle: saline with Tween-80) 108 % of control.

Take `Cc1c2ccccc2c(C)c2c1ccc1ccccc12`: the T/C (dose: 6.25 mg/kg/injection, schedule: Q01DX001 (ip), vehicle: acetone) was 123 % of control and the T/C (dose: 12.37 mg/kg/injection, schedule: Q04DX003 (ip), vehicle: saline with Tween-80) is 112 % of control.

Turning to `O=NN(CCCl)C(=O)N[C@H]1CCCC[C@H]1O`, the T/C reads like this: (dose: 12.0 mg/kg/injection, schedule: Q01DX001 (ip), vehicle: saline with Tween-80) 176 % of control; (dose: 18.0 mg/kg/injection, schedule: Q01DX001 (ip), vehicle: saline with Tween-80) 301 % of control; (dose: 26.0 mg/kg/injection, schedule: Q01DX001 (ip), vehicle: saline with Tween-80) 443 % of control; (dose: 40.0 mg/kg/injection, schedule: Q01DX001 (ip), vehicle: saline with Tween-80) 442 % of control; (dose: 60.0 mg/kg/injection, schedule: Q01DX001 (ip), vehicle: saline with Tween-80) 205 % of control.

For the compound `O=C1C(c2ccccc2)=C(c2ccccc2)C2(c3ccccc3)CN=NC12c1ccccc1` (stereo unspecified), the T/C by setting is: under setting [1], 90 % of control; under setting [2], 94 % of control; (dose: 400.0 mg/kg/injection, schedule: Q04DX003 (ip), vehicle: Klucel (hydroxypropylcellulose) (HPC)) 92 % of control.

Consider `O=C1OC2CC3CCC2C13` (stereo unspecified), for which the T/C by setting is: (dose: 6.25 mg/kg/injection, schedule: Q01DX001 (ip), vehicle: saline) 96 % of control; (dose: 12.5 mg/kg/injection, schedule: Q01DX001 (ip), vehicle: saline) 96 % of control; (dose: 25.0 mg/kg/injection, schedule: Q01DX001 (ip), vehicle: saline) 98 % of control.

As to `CCN(CC)CC[n+]1ccccc1`, the T/C is 93 % of control (dose: 100.0 mg/kg/injection, schedule: Q04DX002 (ip), vehicle: saline) and 100 % of control (dose: 200.0 mg/kg/injection, schedule: Q04DX002 (ip), vehicle: saline).

With `CC1=C2[C@H]3OC(=O)[C@@H](C)[C@@H]3CC[C@@]2(C)C=C/C1=N\O`, the T/C was 101 % of control (dose: 100.0 mg/kg/injection, schedule: Q01DX001 (ip), vehicle: saline) and 98 % of control (dose: 200.0 mg/kg/injection, schedule: Q01DX001 (ip), vehicle: saline).

Regarding `COC(=O)Nc1nc2ccccc2[nH]1`, the T/C is 97 % of control under setting [3]; 94 % of control (dose: 100.0 mg/kg/injection, schedule: Q01DX001 (ip), vehicle: carboxymethylcellulose (CMC)); 101 % of control under setting [4]; 94 % of control (dose: 100.0 mg/kg/injection, schedule: Q04DX003 (ip), vehicle: saline with Tween-80); 97 % of control (dose: 200.0 mg/kg/injection, schedule: Q01DX001 (ip), vehicle: carboxymethylcellulose (CMC)); 97 % of control under setting [5]. In addition, the T/C is 103 % of control (dose: 200.0 mg/kg/injection, schedule: Q04DX003 (ip), vehicle: saline with Tween-80); 100 % of control (dose: 400.0 mg/kg/injection, schedule: Q01DX001 (ip), vehicle: carboxymethylcellulose (CMC)); 116 % of control (dose: 400.0 mg/kg/injection, schedule: Q01DX009 (ip), vehicle: saline with Tween-80); 105 % of control (dose: 400.0 mg/kg/injection, schedule: Q04DX003 (ip), vehicle: saline with Tween-80).

In the case of `CC1=C(Br)C(=O)C(c2c(C)cc(C)c(Br)c2C)=C(Br)C1=O`, the T/C is, setting by setting: under setting [6], 111 % of control; (dose: 100.0 mg/kg/injection, schedule: Q01DX001 (ip), vehicle: Klucel (hydroxypropylcellulose) (HPC)) 89 % of control; under setting [1], 92 % of control; (dose: 200.0 mg/kg/injection, schedule: Q01DX001 (ip), vehicle: Klucel (hydroxypropylcellulose) (HPC)) 87 % of control; under setting [2], 94 % of control.

As to `NC(=S)N/N=C/c1cccn1-c1ccc2ncccc2c1[N+](=O)[O-]`, the T/C runs as follows: (dose: 25.0 mg/kg/injection, schedule: Q04DX002 (ip), vehicle: Klucel (hydroxypropylcellulose) (HPC)) 93 % of control; (dose: 50.0 mg/kg/injection, schedule: Q04DX002 (ip), vehicle: Klucel (hydroxypropylcellulose) (HPC)) 93 % of control; under setting [7], 90 % of control.

Turning to `CCOC1(C)OC2CCCCC2O1` (stereo unspecified), the T/C is, setting by setting: under setting [3], 92 % of control; under setting [4], 92 % of control; under setting [5], 92 % of control.

For the compound `O=C(Nc1ccc(F)c([N+](=O)[O-])c1)Oc1cc(=O)oc2ccccc12`, the T/C (dose: 25.0 mg/kg/injection, schedule: Q04DX003 (ip), vehicle: Klucel (hydroxypropylcellulose) (HPC)) was 104 % of control; the T/C under setting [6] is 101 % of control; the T/C (dose: 75.0 mg/kg/injection, schedule: Q01DX001 (ip), vehicle: Klucel (hydroxypropylcellulose) (HPC)) was 102 % of control; the T/C (dose: 75.0 mg/kg/injection, schedule: Q01DX009 (ip), vehicle: Klucel (hydroxypropylcellulose) (HPC)) is 93 % of control and 103 % of control; the T/C under setting [8] was 103 % of control and 92 % of control; the T/C under setting [7] is 95 % of control and 107 % of control. In addition, the T/C under setting [1] is 98 % of control; the T/C (dose: 150.0 mg/kg/injection, schedule: Q01DX001 (ip), vehicle: Klucel (hydroxypropylcellulose) (HPC)) is 102 % of control; the T/C (dose: 150.0 mg/kg/injection, schedule: Q01DX009 (ip), vehicle: Klucel (hydroxypropylcellulose) (HPC)) is 87 % of control and 92 % of control; the T/C under setting [9] was 97 % of control; the T/C under setting [10] was 100 % of control and 102 % of control; the T/C (dose: 300.0 mg/kg/injection, schedule: Q01DX001 (ip), vehicle: Klucel (hydroxypropylcellulose) (HPC)) is 107 % of control. The T/C under setting [11] was 95 % of control and 96 % of control.

As to `Cc1cnc(C#N)c(-n2ccnc2)n1`, the T/C was 107 % of control (dose: 50.0 mg/kg/injection, schedule: Q01DX009 (ip), vehicle: water); 94 % of control (dose: 100.0 mg/kg/injection, schedule: Q01DX009 (ip), vehicle: water); 108 % of control (dose: 100.0 mg/kg/injection, schedule: Q04DX003 (ip), vehicle: water); 92 % of control (dose: 200.0 mg/kg/injection, schedule: Q01DX009 (ip), vehicle: water); 98 % of control (dose: 200.0 mg/kg/injection, schedule: Q04DX003 (ip), vehicle: water).

For `COc1cccc(CBr)c1-c1c(CBr)cccc1OC`, the T/C by setting is: under setting [7], 94 % of control; under setting [10], 110 % of control; under setting [11], 94 % of control.

Regarding `Cc1cnc(=S)[nH]c1N`, the T/C runs as follows: (dose: 50.0 mg/kg/injection, schedule: Q01DX009 (ip), vehicle: saline) 99 % of control; (dose: 100.0 mg/kg/injection, schedule: Q01DX009 (ip), vehicle: saline) 95 % of control; under setting [12], 101 % of control; (dose: 200.0 mg/kg/injection, schedule: Q01DX009 (ip), vehicle: saline) 99 % of control; under setting [13], 105 % of control.

Turning to `Cc1ccc(NC(=S)N(CCC#N)C(C)C)cc1C`, the T/C by setting is: under setting [8], 110 % of control; under setting [9], 106 % of control; (dose: 400.0 mg/kg/injection, schedule: Q01DX009 (ip), vehicle: Klucel (hydroxypropylcellulose) (HPC)) 103 % of control.

Consider `O=C(c1ccc(Cl)c(Cl)c1)n1c2ccccc2c2ccccc21`, for which the T/C by setting is: under setting [12], 102 % of control; under setting [13], 100 % of control; (dose: 400.0 mg/kg/injection, schedule: Q04DX003 (ip), vehicle: saline) 100 % of control.
